The test system of series [1] is JIMT-1 cell line. The series is described as follows: JIMT-1 cell proliferation, [3H]-thymidine incorporation. It is filed as cell-based. As to conditions: 48 h treatment, 18 h pulse; T 10 μg/ml, P 10 μg/ml, E 5 μg/ml, DN 2 μg/ml; vs IgG. The protocol: A strategy of implementing a TNFα blockade was employed, either with Etanercept (E) or the dominant negative protein XPRO1595 (DN) in JIMT-1, de novo T and T+P resistant cell line which produces TNFα. JIMT-1 tumors were established in female nude mice to explore whether TNFα blockade overcomes T+P resistance. Animals were treated with 5 mg/kg of IgG, P, T+P, 10 mg/kg of DN or P+T+DN i.p. twice a week. […] Proliferation of cells treated with IgG, T, P, DN, E (10 μg/ml, 10 μg/ml, 10 μg/ml, 2 μg/ml and 5 μg/ml respectively) as monotherapy and in different combinations was evaluated by cell count or [3H]-thymidine incorporation. The combination of TNFα blockade with T+P inhibited cell proliferation vs. IgG, P+T, P+E, P+DN (p<0.0001).
Cell proliferation in JIMT-1 cell line was evaluated by ^3[H]-thymidine incorporation assay at 48 h of treatment with 18 h pulse (See Rivas M A, et al., Exp Cell Res 2008; 314:509-29, the contents of which are hereby incorporated by reference). […] The data as shown in FIG. 3 represents mean±standard deviation *p<0.05, **p<0.01, ***p<0.001 vs. IgG.

The test system of series [2] is MDA-MB-468 cell line. The series is described as follows: MDA-MB-468 cell viability, CellTiter Glo 2.0. It is filed as cell-based. As to conditions: Homo sapiens, 72 h, read-out: decrease of MDA-MB-468 cell viability. As to the method:
FIG. 24 INB03 enhances erlotinib inhibition in cell viability of MDA-MB 468 triple-negative breast cancer cells. Cell viability was evaluated in the MDA-MB-468 cell line. Cells were treated with vehicle (DMSO 0.1%), erlotinib (erlot), or INB03 (10 μg/ml), alone or in different combinations for 72 h.

Series [3] concerns HCC70 triple-negative breast cancer cell line. In words: HCC70 cell viability, CellTiter Glo 2.0. The class given is cell-based. As to conditions: 72 h. As to the method: (§1) FIG. 25(A-C) INB03 enhances sorafenib inhibition in cell proliferation of colon, gastric and triple-negative breast cancer cells. Cell proliferation was evaluated in the HT-29 colon cancer (FIG. 25A), SNU-1 gastric cancer (FIG. 25B) and in the in the HCC-70 triple-negative breast cancer cell lines (FIG. 25C). Cells were treated with vehicle (DMSO 0.1%), sorafenib (Soraf), or INB03 (10 μg/ml), alone or in different combinations for 72 h. (FIGS. 25A and B) HT-29 and SNU-1 cell proliferation was evaluated by cell count Countess automatic cell count. (FIG. 25C) HCC70 cell viability was analyzed by CellTiter Glo 2.0 assay.
FIG. 26 INB03 enhances cediranib inhibition in cell viability of HCC70 triple-negative breast cancer cells. Cell viability was evaluated in the HCC70 cell line. Cells were treated with vehicle (DMSO 0.1%), cediranib (cedir), or INB03 (10 μg/ml), alone or in different combinations for 72 h. Cell viability was analyzed by CellTiter Glo 2.0 assay.

The test system of series [4] is JIMT-1-shMUC4 cells. In words: JIMT-1-shMUC4 cell proliferation with lapatinib and TNFα blockade, cell count at 72 h. The class given is cell-based. The protocol:
(§2) Then, to study the participation of MUC4 in lapatinib resistance, we transduced the trastuzumab-resistant JIMT-1 cell line with a plasmid encoding a doxycycline (Dox)-inducible shRNA targeting MUC4, and obtained JIMT-1-shMUC4 cells.
(§3) FIG. 18 TNFα blockade sensitizes lapatinib-resistant cells in vitro. Cell proliferation was evaluated in JIMT-1 and JIMT-1-shMUC4 cell lines by cell count at 72 h of treatment. Cells were treated with immunoglobulin G (IgG 5 μg/ml), lapatinib (Lap 1 μM), etanercept (E 5 μg/ml), or INB03 (DN; 10 μg/ml), alone or in different combinations. FIG. 18A. JIMT-1 wild type. FIGS. 18B and 18C JIMT-1-shMUC4 and in C cells were treated with Dox 10 μg/ml for 10 days before and during the experiment to assure MUC4 downregulation.

Series [5] relates to JIMT-1 cell line. In words: JIMT-1 cell proliferation with lapatinib and TNFα blockade, cell count at 72 h. It is filed as cell-based. The note with it: TNFα blocker simultaneously with lapatinib 1 μM, E 5 μg/ml, INB03 10 μg/ml. As to the method:
as §2, §3

Series [6] deals with JIMT-1-shMUC4 cells. In words: JIMT-1-shMUC4 migration with lapatinib and TNF-blocking agents. The class given is cell-based. The protocol:
(§4) Again, lapatinib is used in the metastatic setting (infra). The metastatic cascade is a multistep process that involves migration and invasion of tumor cells that pass through the basement membrane and extracellular matrix, the intravasation to the lymphatic or vascular circulation, the extravasation and the attachment of a new location to generate a secondary tumor. The migration ability of JIMT-1 treated with lapatinib and TNF-blocking agents was evaluated. […] To study MUC4 contribution on the inhibition of migration observed by simultaneous treatment of TNF-blocking drugs and lapatinib, the JIMT-1 cell line was transduced with a plasmid encoding a doxycycline-inducible shRNA targeting MUC4, and JIMT-1-shMUC4 cells were obtained (FIGS. 16 B and C).

In series [7] the test system is JIMT-1. In words: JIMT-1 migration with lapatinib and TNF-blocking agents. The class given is cell-based. As to the method:
as §4

Series [8] deals with SNU-1 gastric cancer cell line. In words: SNU-1 cell proliferation, Countess automatic cell count. The class given is cell-based. The note with it: 72 h. As to the method:
In order to extend our findings of the role of INB03 in increasing lapatinib inhibitory effect on HER2+ breast cancer cell proliferation to other tumor types, we used both drugs in the ovarian cancer SK-OV-3 cells and in the gastric SNU-1 cells. Both cell lines express HER2 and MUC4.
FIG. 22(A-B) INB03 enhances lapatinib inhibition in cell proliferation of ovarian and gastric cancer cell. Cell proliferation was evaluated in the SK-OV-3 ovarian cancer cell line (FIG. 22A) and in the SNU-1 gastric cancer cell line. Cells were treated with vehicle (DMSO 0.1%), lapatinib (Lap), or NB03 (10 μg/ml), alone or in different combinations for 72 h. (FIG. 22A) SK-OV-3 cells viability was analyzed by CellTiter Glo 2.0 assay. (FIG. 22B) SNU-1 cell proliferation was evaluated by cell count Countess automatic cell count.
as §1

Series [9] relates to HT-29 colon cancer cells. In words: HT-29 cell proliferation, Countess automatic cell count. As to conditions: 72 h. It is filed as cell-based. The protocol:
as §1

The conditions of series [10]: stated without test; cited from earlier work.
In series [11] the test system is SK-OV-3 ovarian cancer cell line. The series is described as follows: SK-OV-3 cell viability, CellTiter Glo 2.0. It is filed as cell-based. The note with it: lapatinib 2.5 μM alone, 72 h.
Method: Cells were treated with vehicle (DMSO 0.1%), lapatinib (Lap), or NB03 (10 μg/ml), alone or in different combinations for 72 h. (FIG. 22A) SK-OV-3 cells viability was analyzed by CellTiter Glo 2.0 assay. […] Data was analyzed by one-way ANOVA coupled with a Tukey's post hoc test. The data as shown represents mean SEM. *p<0.05, **p<0.01.
Series [12] relates to HER2+ breast cancer. As to conditions: patients with trastuzumab-resistant disease; cited from earlier work.

The source of these data is patent US20230118642A1, “METHOD FOR TREATING THERAPY-RESISTANT MUC4+ CANCER” (CONSEJO NACIONAL DE INVESTIGACIONES CIENTÍFICAS Y TÉCNICAS, priority 2020, published 2023).

Take “pertuzumab: monoclonal antibody that disrupts HER2/HER3 dimerization”: the “cell proliferation in JIMT-1 cell line” value in series [1] is given as “negligible, if any, impact”.

Turning to `C#Cc1cccc(Nc2ncnc3cc(OCCOC)c(OCCOC)cc23)c1` [erlotinib], the cytotoxicity at 1.25 µM in series [2] (erlotinib 1.25 μM alone) is 27%. Also, the cytotoxicity at 2.5 µM in [2] (erlotinib 2.5 μM alone) was determined as 38%. The cytotoxicity at 5 µM in [2] (erlotinib 5 μM alone) was 48%.

In the case of `COc1cc2c(Oc3ccc4[nH]c(C)cc4c3F)ncnc2cc1OCCCN1CCCC1` [cediranib], the cytotoxicity at 2.5 µM in series [3] (Homo sapiens, HCC70, cediranib 2.5 μM alone, read-out: effect on HCC70 cell viability) came to 20%. Besides, the cytotoxicity at 5 µM in series [3] (Homo sapiens, HCC70, cediranib 5 μM alone, read-out: effect on HCC70 cell viability) is 46%.

Regarding etanercept, in series [4] (JIMT-1-shMUC4 with Dox, TNFα blocker added to lapatinib), the cell proliferation result is given as “did not further induce a decrease in cell proliferation”. Besides, the JIMT-1 cell proliferation entry in [5] is “reduces JIMT-1 cell proliferation”. The cell migration entry is “did not further induce a decrease in cell migration” in series [6] (JIMT-1-shMUC4 with doxycycline, TNF blocker added to lapatinib) and “decreased their migration” in [6] (JIMT-1shMUC4 without doxycycline, TNF blocker with lapatinib). Besides, the JIMT-1 migration entry in series [7] (TNF blocker together with lapatinib) is given as “impairs JIMT-1 migration”; in series [7] (each drug alone), “no effect”.

`CNC(=O)c1cc(Oc2ccc(NC(=O)Nc3ccc(Cl)c(C(F)(F)F)c3)cc2)ccn1` [sorafenib]: in [8] (sorafenib 1.5 μM alone), the “effect on SNU-1 proliferation” value is recorded as “did not affect its proliferation”. In series [8] (sorafenib 3 μM alone), the “decrease of SNU-1 cell proliferation” value was found to be 38%. In addition, the cytotoxicity at 1.5 µM in series [3] (Homo sapiens, HCC70, sorafenib 1.5 μM alone, read-out: HCC70 viability reduction) is 44%. In series [3] (sorafenib 1 μM alone), the “effect on HCC70 viability” value is recorded as “no effect”. In series [9] (sorafenib 2.5 μM alone), the “effect on HT-29 cell proliferation” value is on record as “no inhibitory effect”. The “reduction of HT-29 proliferation” value in [9] (sorafenib 10 μM alone) turned out to be 62%.

Regarding `CS(=O)(=O)CCNCc1ccc(-c2ccc3ncnc(Nc4ccc(OCc5cccc(F)c5)c(Cl)c4)c3c2)o1` [lapatinib], the “crossing of the blood-brain-barrier” value in series [10] was “cross the blood-brain-barrier”. In [8] (lapatinib 1 μM alone), the “effect on proliferation of SNU-1 cells” value is on record as “no effect”. The cell proliferation result in series [4] (JIMT-1-shMUC4 with Dox 10 μg/ml (MUC4 silenced), lapatinib) was “decrease in JIMT-1 cells proliferation”. Moreover, the “effect on viability of SK-OV-3 cells” value in series [11] is given as “no effect”. Further, the “patients with clinical benefit” value in series [12] was below 30%. Further, the cell migration entry in [6] (JIMT-1-shMUC4 with doxycycline (MUC4 silenced), lapatinib) is recorded as “decrease in JIMT-1 cells migration”. For the same molecule, the JIMT-1 migration entry in series [7] (each drug alone) is “no effect”.
